Results on 4 compounds are retold here after patent US8518872B2, “Methods of using (+)-1,4-dihydro-7-[(3S,4S)-3-methoxy-4-(methylamino)-1-pyrrolidinyl]-4-OXO-1-(2-thiazolyl)-1,8-naphthyridine-3-carboxylic acid in combination therapy” (Sunesis Pharmaceuticals, Inc., priority 2007, dated 2013).

Data set [1] deals with subcutaneous H460 xenografts (non-small cell lung carcinoma). Put plainly: SNS-595 and gemcitabine in non-small cell lung carcinoma H460 xenograft model. In kind it is in vivo, athymic nude mice. Particulars: SNS-595 10 mg/kg IV qw x3, gemcitabine 75 mg/kg IP biw x2, combination of both; for BW Nadir: H460 xenograft mice; for BW Nadir (Day of): day of body weight nadir.
Procedure: The effect of co-administration of SNS-595 and gemcitabine on the growth of non-small cell lung carcinoma, athymic nude mice bearing subcutaneous H460 xenografts were treated with SNS-595, gemcitabine or the two in combination as indicated below.
SNS-595 was administered once a week and gemcitabine was twice weekly as indicated above with the combination being co-dosed. In the vehicle group, the gemcitabine vehicle was administered 24 hours after the SNS-595 vehicle representing additional treatment arms in the experiment. Tumor volume and animal body weight was measured at least twice weekly.
Data set [2] relates to subcutaneous H460 (non-small cell lung carcinoma). Put plainly: SNS-595 and carboplatin in non-small cell lung carcinoma H460 xenograft model. In kind it is in vivo, athymic nude mice. Particulars: SNS-595 10 mg/kg IV qw x5, carboplatin 75 mg/kg IP qw x3, combination of both. As for the experimental part: The effect of co-administration of SNS-595 and carboplatin was observed on the growth of non-small cell lung carcinoma, athymic nude mice bearing subcutaneous H460. The mice were treated with SNS-595, carboplatin or the two in combination as indicated below.

Data set [3] concerns subcutaneous A2780 xenografts (ovarian carcinoma). The data set can be described thus: SNS-595 and cisplatin in ovarian carcinoma A2780 xenograft model. Particulars: SNS-595 10 mg/kg IV qw x3, cisplatin 5 mg/kg IP qw x3, combination of both.
Procedure: The effect of co-administration of SNS-595 and cisplatin was observed on the growth of ovarian carcinoma studied in athymic nude mice bearing subcutaneous A2780 xenografts. The mice were treated with SNS-595, cisplatin or the two in combination as indicated below.
Animal treatment was initiated when mean tumor volume was 200 mm^3. The combination was co-dosed once a week for three weeks. Tumor volumes and animal body weight were measured twice weekly.
Data set [4] deals with subcutaneous BxPC-3 xenografts (pancreatic carcinoma). Put plainly: SNS-595 and gemcitabine in pancreatic carcinoma BxPC-3 xenograft model. To be noted: SNS-595 15 mg/kg IV qw x3, gemcitabine 65 mg/kg IP biw x3; for BW Nadir: BxPC-3 xenograft mice; for BW Nadir / % Tumor Growth Inhibition (Day 38) / BW Nadir (Day of): combination of both; for BW Nadir (Day of): day of body weight nadir. In kind it is in vivo, NIH-III mice.
Procedure: SNS-595 was administered once a week and gemcitabine was twice weekly for two weeks followed by one additional dose as indicated above with the combination being co-dosed. Tumor volume and animal body weight was measured at least once weekly. SNS-595 was administered once a week and gemcitabine was twice weekly for two weeks followed by one additional dose as indicated above with the combination being co-dosed. Tumor volume and animal body weight was measured at least once weekly.

Data set [5] can be described thus: Solubility of SNS-595 in acidic compositions. To be noted: acidic compositions (<pH 4). It counts as physicochemical. As for the experimental part:
An illustrative example of a suitable composition comprises: 10 mg SNS-595 per mL of aqueous solution of 4.5% sorbitol that is adjusted to pH 2.5 with methanesulfonic acid. One protocol for making such a solution includes the following for making a 100 mg/10 mL presentation: 100 mg of SNS-595 and 450 mg D-sorbitol are added to distilled water; the volume is brought up to a volume of 10 mL; and the pH of the resulting solution is adjusted to 2.5 with methanesulfonic acid. The resulting composition is also suitable for lyophilization. The lyophilized form is then reconstituted with sterile water to the appropriate concentration prior to use.

Structures are written as SMILES. Values joined by “and” are separate entries in the source; they are usually repeats but may differ in a detail not shown here. Equal entries are not always repeated.

On to `CN[C@H]1CN(c2ccc3c(=O)c(C(=O)O)cn(-c4nccs4)c3n2)C[C@@H]1OC` [SNS-595, (+)-1,4-dihydro-7-[(3S,4S)-3-methoxy-4-(methylamino)-1-pyrrolidinyl]-4-oxo-1-(2-thiazolyl)-1,8-naphthyridine-3-carboxylic acid], for which, in data set [1], the “% Tumor Growth Inhibition (Day 11)” value was 62% and 61.9%; the “BW Nadir” value is reported as −5.9%; the “Tumor Growth Delay” value stood at 11.0 days; the “BW Nadir (Day of)” value is “(Day 11)”. Further, in data set [2], the “% Tumor Growth Inhibition (Day 16)” value was 53% and 53.2%; the “Tumor Growth Delay” value turned out to be 23.0 days. Also, in data set [3], the “% Tumor Growth Inhibition (Day 11)” value worked out at 21.7% and the “Tumor Growth Delay” value was found to be 5.5 days. In addition, in data set [4], the “BW Nadir” value was −2.5%; the “% Tumor Growth Inhibition (Day 38)” value is 26% and 25.9%; the “Tumor Growth Delay” value came out at 23.0 days; the “BW Nadir (Day of)” value is reported as “(Day 11)”. Further, the solubility result in data set [5] is listed as “increased solubility”.

As for `N.N.O=C([O-])C1(C(=O)[O-])CCC1.[Pt+2]` [Carboplatin, carboplatin], in data set [2], the “% Tumor Growth Inhibition (Day 16)” value is reported as 31.6% and the “Tumor Growth Delay” value is recorded as 12.5 days. Further, in data set [2] (listed as carboplatin), the “% Tumor Growth Inhibition (Day 16)” value amounted to 32%. Moreover, the “BW Nadir” value in data set [2] (H460 xenograft mice) was −2.8%. In addition, the “BW Nadir (Day of)” value in data set [2] (day of body weight nadir) was “(Day 16)”.

For `N.N.[Cl][Pt][Cl]` [Cisplatin, cisplatin], the “BW Nadir” value in data set [3] (A2780 xenograft mice) is recorded as −10.9%. In data set [3], the “% Tumor Growth Inhibition (Day 11)” value was found to be 49.0% and the “Tumor Growth Delay” value came to 11.0 days. The “% Tumor Growth Inhibition (Day 11)” value in data set [3] (listed as cisplatin) came out at 49%. The “BW Nadir (Day of)” value in data set [3] (day of body weight nadir) is recorded as “(Day 11)”.

`Nc1ccn([C@@H]2O[C@H](CO)[C@@H](O)C2(F)F)c(=O)n1` [Gemcitabine, gemcitabine]: in data set [1], the “% Tumor Growth Inhibition (Day 11)” value is recorded as 36.6%, the “BW Nadir” value is listed as −7.4%, the “Tumor Growth Delay” value was found to be 5.0 days and the “BW Nadir (Day of)” value is “(Day 11)”. Moreover, in data set [1] (listed as gemcitabine), the “% Tumor Growth Inhibition (Day 11)” value was determined as 37%. Moreover, in data set [4], the “BW Nadir” value came out at 0%, the “% Tumor Growth Inhibition (Day 38)” value stood at 20.2%, the “Tumor Growth Delay” value was 12.5 days and the “BW Nadir (Day of)” value was “(Day 0)”. Also, the “% Tumor Growth Inhibition (Day 38)” value in data set [4] (listed as gemcitabine) amounted to 20%.
